Measurements reported in patent US11504358B2, “Extended release methazolamide formulation” (Effcon Laboratories, Inc., priority 2017, dated 2022).

Assays:
[1] = in water, alcohol and acetone; cited from earlier work
[2] = Methazolamide particle size testing, sonic shifter (sieves); assay type: physicochemical
Method: (§1) Methazolamide particle size testing was performed on unmilled methazolamide particles and methazolamide particles milled in-house and by a third party vendor according to the above milling procedure. Methazolamide particle size testing was conducted using a Mastersizer laser particle size analyzer from Malvern Instruments or a sonic shifter. The results of the particle size testing for methazolamide particles milled in-house, as measured by a laser particle size analyzer, are as follows:
The results of the particle size testing for unmilled methazolamide particles, methazolamide particles milled in-house, and methazolamide particles milled by a third party vendor, as measured by a sonic shifter, are as follows: […]

[3] = Density of methazolamide particles; assay type: physicochemical
[4] = Methazolamide particle size testing, laser particle size analyzer; assay type: physicochemical; details: particles milled in-house
Method: The following conventions apply when describing particle size distribution. D(v, 0.1) means that 10% of the particles are smaller than this diameter. D(v, 0.5) is the median particle diameter. D(v, 0.9) means that 90% of the particles are smaller than this diameter.
as §1, with “follows: […]” for “follows:”

| SMILES | Solubility [1] | % Retained, Fines Collector [2] [%] | % Retained, Sieve # 20 (840 μm) [2] [%] | % Retained, Sieve # 40 (420 μm) [2] [%] | % Retained, Sieve # 80 (177 μm) [2] [%] | % Retained, Sieve # 100 (149 μm) [2] [%] | % Retained, Sieve # 140 (105 μm) [2] [%] | % Retained, Sieve # 200 (74 μm) [2] [%] | Bulk Density [3] [g/mL] | Trapped Density [3] [g/mL] | D(v, 0.1) [4] [μm] | D(v, 0.5) [4] [μm] | D(v, 0.9) [4] [μm] |
| --- | --- | --- | --- | --- | --- | --- | --- | --- | --- | --- | --- | --- | --- |
| CC(=O)N=c1sc(S(N)(=O)=O)nn1C [Methazolamide, N-[5-(aminosulfonyl)-3-methyl-1,3,4-thiadiazol-2(3H)-ylidene]acetamide] | slightly soluble | – | – | – | – | – | – | – | – | – | – | – | – |
| CC(=O)/N=c1/sc(S(N)(=O)=O)nn1C [Milled API (3rd party)] | – | 15.56 | 5.15 | 6.14 | 21.88 | 17.14 | 21.90 | 12.29 | 0.53 | 1.00 | – | – | – |
| CC(=O)/N=c1/sc(S(N)(=O)=O)nn1C [Milled API (in-house)] | – | 16.51 | 1.23 | 1.52 | 15.27 | 19.54 | 32.92 | 13.00 | 0.56 | 0.99 | – | – | – |
| CC(=O)/N=c1/sc(S(N)(=O)=O)nn1C [Sample 1] | – | – | – | – | – | – | – | – | – | – | 42.15 | 121.45 | 255.75 |
| CC(=O)/N=c1/sc(S(N)(=O)=O)nn1C [Sample 2] | – | – | – | – | – | – | – | – | – | – | 47.67 | 132.34 | 269.30 |
| CC(=O)/N=c1/sc(S(N)(=O)=O)nn1C [Sample 3] | – | – | – | – | – | – | – | – | – | – | 48.42 | 128.46 | 267.26 |
| CC(=O)/N=c1/sc(S(N)(=O)=O)nn1C [Unmilled API] | – | 0.83 | 0.09 | 7.95 | 75.05 | 8.04 | 6.01 | 2.03 | 0.92 | 1.03 | – | – | – |
